The record followed here is patent publication US9056836B2, “Benzomorphan analogs and the use thereof” (Purdue Pharma L.P., priority 2013, dated 2015).

Test [1] has as its target T1, κ opioid receptor (Homo sapiens (Human), UniProt P41145). The test can be described thus: κ-opioid receptor radioligand dose-displacement binding assay ([3H]-U69,593). As for the experimental part: κ-opioid Receptor Binding Assay Procedures: Membranes from recombinant HEK-293 cells expressing the human κ opioid receptor (cloned in house) were prepared by lysing cells in ice cold hypotonic buffer (2.5 mM MgCl2, 50 mM HEPES, pH 7.4) (10 mL/10 cm dish) followed by homogenization with a tissue grinder/Teflon pestle. Membranes were collected by centrifugation at 30,000× g for 15 min at 4° C. and pellets were resuspended in hypotonic buffer to a final concentration of 1-3 mg/mL. Protein concentrations were determined using the BioRad protein assay reagent with bovine serum albumen as standard. Aliquots of κ receptor membranes were stored at −80° C.
Radioligand dose displacement assays used 0.4 nM [^3]-U69,593 (GE Healthcare, Piscataway, N.J.; 40 Ci/mmole) with 15 μg membrane protein (recombinant κ opioid receptor expressed in HEK 293 cells; in-house prep) in a final volume of 200 μl binding buffer (5% DMSO, 50 mM Trizma base, pH 7.4). Non-specific binding was determined in the presence of 10 μM unlabeled naloxone or U69,593. All reactions were performed in 96-well polypropylene plates for 1 hr at a temperature of about 25° C. Binding reactions were terminated by rapid filtration onto 96-well Unifilter GF/C filter plates (Perkin Elmer, Shelton, Conn.) presoaked in 0.5% polyethylenimine (Sigma). Harvesting was performed using a 96-well tissue harvester (Perkin Elmer, Shelton, Conn.) followed by five filtration washes with 200 μl ice-cold binding buffer. Filter plates were subsequently dried at 50° C. for 1-2 hours. Fifty μl/well scintillation cocktail (Perkin Elmer, Shelton, Conn.) was added and plates were counted in a Packard Top-Count for 1 min/well. Data were analyzed using the sigmoidal dose-response curve fitting functions in GraphPad PRISM™ v. 3.0, or an in-house function for non-linear, sigmoidal dose-response curve-fitting.
κ-opioid Receptor Binding Data: In certain embodiments, the Compounds of the Invention will have a Ki (nM) for κ receptors of about 10,000 or more (which, for purposes of this invention, is interpreted as having no binding to the κ receptors).

In test [2] the target is T2, μ-opioid receptor (Homo sapiens (Human), UniProt P35372). The test can be described thus: μ-opioid receptor [35S]GTPγS functional assay. The test is classed as biochemical. Particulars: for Emax: maximal effect relative to DAMGO. As for the experimental part: μ-Opioid Receptor Functional Assay Procedures: [^35S]GTPγS functional assays were conducted using freshly thawed μ-receptor membranes (Perkin Elmer, Shelton, Conn.). Assay reactions were prepared by sequentially adding the following reagents to binding buffer (100 mM NaCl, 10 mM MgCl2, 20 mM HEPES, pH 7.4) on ice (final concentrations indicated): membrane protein (0.026 mg/mL), saponin ([…]), GDP ([…]) and [^35S]GTPγS (0.20 nM; Perkin Elmer, Shelton, Conn.). The prepared membrane solution (190 μl/well) was transferred to 96-shallow well polypropylene plates containing 10 μl of 20× concentrated stock solutions of the agonist [D-Ala^2, N-methyl-Phe^4 Gly-ol^5]-enkephalin (DAMGO) prepared in dimethyl sulfoxide (DMSO). Plates were incubated for 30 min at about 25° C. with shaking. Reactions were terminated by rapid filtration onto 96-well Unifilter GF/B filter plates (Perkin Elmer, Shelton, Conn.) using a 96-well tissue harvester (Perkin Elmer, Shelton, Conn.) followed by three filtration washes with 200 μl of ice-cold wash buffer (10 mM NaH2PO4, 10 mM Na2HPO4, pH 7.4). Filter plates were subsequently dried at 50° C. for 2-3 hr, BetaScint scintillation cocktail (Perkin Elmer, Shelton, Conn.) was added (50 μl/well) and plates were counted using a Packard Top-Count for […]. Data were analyzed using the sigmoidal dose-response curve fitting functions in GraphPad PRISM™; v. 3.0, or an in-house function for non-linear, sigmoidal dose-response curve-fitting.
μ-Opioid Receptor Functional Data: μ GTP EC50 is the concentration of a compound providing 50% of the maximal response for the compound, at a μ-opioid receptor. […] In certain embodiments.
μ GTP Emax (%) is the maximal effect elicited by a compound relative to the effect elicited by DAMGO, a standard μ agonist. Generally, the μ GTP Emax (%) value measures the efficacy of a compound to treat or prevent pain or other Conditions.

The target of test [3] is T1, κ opioid receptor. The test can be described thus: κ-opioid receptor [35S]GTPγS functional assay. Particulars: for Emax: maximal effect relative to U69,593. The test is classed as biochemical. On the procedure: κ-Opioid Receptor Functional Assay Procedures: Functional [^35S]GTPγS binding assays were conducted as follows, k opioid receptor membrane solution was prepared by sequentially adding final concentrations of 0.026 μg/μl κ membrane protein (in-house), 10 μg/mL saponin, 3 μM GDP and 0.20 [^35S]GTPγS to binding buffer (100 mM NaCl, 10 mM MgCl2, 20 mM HEPES, pH 7.4) on ice. The prepared membrane solution (190 μl/well) was transferred to 96-shallow well polypropylene plates containing 10 μl of 20× concentrated stock solutions of agonist prepared in DMSO. Plates were incubated for 30 min at a temperature of about 25° C. with shaking. Reactions were terminated by rapid filtration onto 96-well Unifilter GF/B filter plates (Perkin Elmer, Shelton, Conn.) using a 96-well tissue harvester (Packard) and followed by three filtration washes with 200 μl ice-cold binding buffer (10 mM NaH2PO4, 10 mM Na2HPO4, pH 7.4). Filter plates were subsequently dried at 50° C. for 2-3 hours. Fifty μl/well scintillation cocktail (Perkin Elmer, Shelton, Conn.) was added and plates were counted in a Packard Top-Count for 1 min/well. Data were analyzed using the sigmoidal dose-response curve fitting functions in GraphPad PRISM™ v. 3.0, or an in-house function for non-linear, sigmoidal dose-response curve-fitting.
κ-Opioid Receptor Functional Data: κ GTP EC50 is the concentration of a compound providing 50% of the maximal response for the compound at a κ receptor.
κ GTP Emax (%) is the maximal effect elicited by a compound relative to the effect elicited by U69,593.

Test [4] concerns the target T2, μ-opioid receptor. The test can be described thus: μ-opioid receptor radioligand dose-displacement binding assay ([3H]-diprenorphine). Particulars: binding affinity, μ-opioid receptor membranes. On the procedure:
μ-opioid Receptor Binding Assay Procedures: Radioligand dose-displacement binding assays for μ-opioid receptors used 0.3 nM [^3H]-diprenorphine (Perkin Elmer, Shelton, Conn.), with […] membrane protein/well in a final volume of 500 μl binding buffer (10 mM MgCl2, 1 mM EDTA, 5% DMSO, 50 mM HEPES, pH 7.4). Reactions were carried out in the absence or presence of increasing concentrations of unlabeled naloxone. All reactions were conducted in 96-deep well polypropylene plates for 2 hr at room temperature. Binding reactions were terminated by rapid filtration onto 96-well Unifilter GF/C filter plates (Perkin Elmer, Shelton, Conn.), presoaked in 0.5% polyethylenimine using a 96-well tissue harvester (Perkin Elmer, Shelton, Conn.) followed by performing three filtration washes with 500 μl of ice-cold binding buffer. Filter plates were subsequently dried at 50° C. for 2-3 hours. BetaScint scintillation cocktail (Perkin Elmer, Shelton, Conn.) was added (50 μl/well), and plates were counted using a Packard Top-Count for 1 min/well. The data were analyzed using the one-site competition curve fitting functions in GraphPad PRISM™ v. 3.0 or higher (San Diego. Calif.), or an in-house function for one-site competition curve-fitting.

Where [5] appears, read: binding affinity, recombinant κ opioid receptor expressed in HEK 293 cells, read-out: Ki (nM) Opioid Receptor κ.
Setting [6] is: μ GTP EC50, read-out: GTPγS μ EC50.
[7] abbreviates: κ GTP EC50, read-out: GTPγS κ EC50.

Like-named read-outs stand apart in the source and are kept apart here.

As a reminder, the Ki is a dissociation constant, usually derived from enzyme kinetics or from competition with a known ligand. For orientation: Emax means the size of the effect at its maximum, as opposed to the concentration needed. A word on the EC50: it is the concentration giving half of the maximal effect. Turning to `COc1ccc2c(c1)[C@]1(CC(N)=O)CCN(CC3CC3)[C@H](C2)[C@@H]1CO` [Compound 22, 2-((2R,6S,11R)-3-(cyclopropylmethyl)-11-(hydroxymethyl)-8-methoxy-1,2,3,4,5,6-hexahydro-2,6-methanobenzo[d]azocin-6-yl)acetamide], the Ki at κ opioid receptor [1] (setting [5]) was 79.1 ± 19.1 nM. The maximal response (Emax) stood at 56 ± 3.61% at μ-opioid receptor [2] and 41.7 ± 4.91% at κ opioid receptor [3]. The figures for the EC50 on μ-opioid receptor [2] (setting [6]) and at κ opioid receptor [3] (setting [7]) were 1.28 ± 0.177 µM and 2.18 ± 0.326 µM, respectively.

With `O=C(O)CCC[C@]12CCN(CC3CC3)[C@H](Cc3ccc(O)cc31)[C@@H]2CC(=O)O` [Compound 10, 4-((2R,6R,11R)-11-(carboxymethyl)-3-(cyclopropylmethyl)-8-hydroxy-1,2,3,4,5,6-hexahydro-2,6-methanobenzo[d]azocin-6-yl)butanoic acid], the Ki at κ opioid receptor [1] (setting [5]) was found to be 64.5 ± 11.3 nM; on μ-opioid receptor [4] it was 977 ± 335 nM. Besides, the Emax at μ-opioid receptor [2] was found to be 16 ± 3%; on κ opioid receptor [3] it was 31.3 ± 1.86%. Moreover, the figures for the EC50 at μ-opioid receptor [2] (setting [6]) and on κ opioid receptor [3] (setting [7]) were 0.0705 ± 0.0269 µM and 0.275 ± 0.0436 µM, respectively.

In turn, `COc1ccc2c(c1)[C@]1(CCO)CCN(CC3CC3)[C@H](C2)[C@@H]1CO` [Compound 19, 2-((2R,6S,11R)-3-(cyclopropylmethyl)-11-(hydroxymethyl)-8-methoxy-1,2,3,4,5,6-hexahydro-2,6-methanobenzo[d]azocin-6-yl)ethanol] yielded a Ki on κ opioid receptor [1] of 89.6 ± 33 nM. Also, the EC50 on μ-opioid receptor [2] is more than 20 µM. On κ opioid receptor [3], this molecule came in with an EC50 of 1.86 ± 0.231 µM and an Emax of 40.3 ± 5.36%.

On to `CN(C)C(=O)CCC[C@]12CCN(CC3CC3)[C@H](Cc3ccc(O)cc31)/C2=C\C(=O)O` [Compound 12, (Z)-2-((2R,6S)-3-(cyclopropylmethyl)-6-(4-(dimethylamino)-4-oxobutyl)-8-hydroxy-1,2,3,4,5,6-hexahydro-2,6-methanobenzo[d]azocin-11-ylidene)acetic acid], for which the Ki came out at 42.5 ± 4.24 nM at κ opioid receptor [1] (setting [5]) and 853 ± 199 nM at μ-opioid receptor [4]. Moreover, the figures for the Emax at μ-opioid receptor [2] and at κ opioid receptor [3] were 48.7 ± 3.53% and 74.7 ± 1.2%, respectively. Besides, the EC50 is 0.421 ± 0.14 µM at μ-opioid receptor [2] (setting [6]) and 1 ± 0.106 µM at κ opioid receptor [3] (setting [7]).

As to `O=C(O)/C=C1\[C@H]2Cc3ccc(O)cc3[C@]1(CCCC(=O)O)CCN2CC1CC1` [Compound 13, 4-((2R,6S,Z)-11-(carboxymethylene)-3-(cyclopropylmethyl)-8-hydroxy-1,2,3,4,5,6-hexahydro-2,6-methanobenzo[d]azocin-6-yl)butanoic acid], the Ki stood at 66.8 ± 8.74 nM at κ opioid receptor [1] (setting [5]) and 1340 ± 356 nM on μ-opioid receptor [4]. Also, the results for the Emax at μ-opioid receptor [2] and at κ opioid receptor [3] were 44.3 ± 9.06% and 74.3 ± 7.84%, respectively. Also, the EC50 stood at 0.743 ± 0.195 µM at μ-opioid receptor [2] (setting [6]) and 0.555 ± 0.0611 µM on κ opioid receptor [3] (setting [7]).
